From patent publication US20110014291A1, “Novel Polymorphs of Bosentan” (ACTAVIS GROUP PTC EHF, priority 2007, published 2011)

Experiment: dissolution properties of the solid form
Assay type: physicochemical
Details: conditions not given

SMILES: COc1ccccc1Oc1c(NS(=O)(=O)c2ccc(C(C)(C)C)cc2)nc(-c2ncccn2)nc1OCCO [amorphous form, bosentan]
- dissolution properties: advantageous dissolution properties
